{"source": "patent US20050181473A1", "about": "“Bacterial adpglucose pyrophospatase method for obtaining the latter and its use in the production of assay devices and in the obtention of transgenic plants and bacteria” (priority 2001, published 2005)", "note": "“Also recorded” adds a separate entry of the source."}
{"molecular_target": "bacterial AGPPase (Escherichia coli, UniProt Q93K97, L2V/N6S)", "sequence (Q93K97 whole entry L2V/N6S, looked up)": "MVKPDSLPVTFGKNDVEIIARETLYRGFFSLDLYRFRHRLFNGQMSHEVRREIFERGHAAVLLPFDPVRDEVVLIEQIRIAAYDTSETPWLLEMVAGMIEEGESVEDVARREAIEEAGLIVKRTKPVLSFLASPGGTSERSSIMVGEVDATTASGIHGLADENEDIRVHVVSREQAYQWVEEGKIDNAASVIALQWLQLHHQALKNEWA", "assay_type": "biochemical", "conditions": "not given"}
{"smiles": "N[C@@H](CCC(=O)N[C@@H](CS)C(=O)NCC(=O)O)C(=O)O", "note": "[reduced glutathione]", "AGPPase activity affected by reducing and chelating agents": "adversely affected"}
{"smiles": "[O]=[Mo](=[O])([O-])[O-]", "note": "[molybdate]", "inhibition of AGPPase": "strongly inhibited; also recorded: Inhibited strongly"}
{"smiles": "Nc1ncnc2c1ncn2[C@@H]1O[C@H](COP(=O)(O)O)[C@@H](O)[C@H]1O", "note": "[AMP]", "inhibition of AGPPase": "Inhibited"}
{"smiles": "O=P(O)(O)OP(=O)(O)O", "note": "[inorganic pyrophosphate]", "inhibition of AGPPase": "Inhibited"}
{"smiles": "O=C(O)CN(CCN(CC(=O)O)CC(=O)O)CC(=O)O", "note": "[EDTA]", "AGPPase activity affected by reducing and chelating agents": "adversely affected"}
{"smiles": "O=P(O)(O)O", "note": "[orthophosphate]", "inhibition of AGPPase": "not"}
{"smiles": "Nc1ncnc2c1ncn2[C@@H]1O[C@H](COP(=O)(O)OP(=O)(O)OP(=O)(O)O)[C@@H](O)[C@H]1O", "note": "[ATP]", "inhibition of AGPPase": "Inhibited"}
{"smiles": "Nc1ncnc2c1ncn2[C@@H]1O[C@H](COP(=O)(O)OP(=O)(O)O)[C@@H](O)[C@H]1O", "note": "[ADP]", "inhibition of AGPPase": "Inhibited"}
{"smiles": "O=C(O)[C@H](O)COP(=O)(O)O", "note": "[3-phosphoglycerate]", "inhibition of AGPPase": "Inhibited"}
{"smiles": "N[C@@H](CCC(=O)O)C(=O)O", "note": "[glutamate]", "AGPPase activity affected by reducing and chelating agents": "adversely affected"}
{"smiles": "N[C@@H](CS)C(=O)O", "note": "[reduced cysteine]", "AGPPase activity affected by reducing and chelating agents": "adversely affected"}
{"smiles": "OCCS", "note": "[β-mercaptoethanol]", "AGPPase activity affected by reducing and chelating agents": "adversely affected"}
{"smiles": "[Mg+2]", "note": "[magnesium]", "requirement for optimum functioning of AGPPase": "requires"}
{"molecular_target": "bacterial AGPPase (Escherichia coli, UniProt Q93K97, L2V/N6S)", "assay_type": "biochemical", "conditions": "37° C., Tris-HCl 50 mM pH 7.5, 5 mM MgCl2"}
{"smiles": "Nc1ncnc2c1ncn2[C@@H]1O[C@@H]2COP(=O)(O)O[C@H]2[C@H]1O", "note": "[cyclic AMP]", "hydrolysis / recognition as substrate by AGPPase": "Nor does it hydrolyze"}
{"molecular_target": "bacterial AGPPase (Escherichia coli, UniProt Q93K97, L2V/N6S)", "assay_type": "biochemical", "conditions": "pH 7.5"}
{"smiles": "Nc1ncnc2c1ncn2[C@@H]1O[C@H](COP(=O)(O)OP(=O)(O)O[C@H]2O[C@H](CO)[C@@H](O)[C@H](O)[C@H]2O)[C@@H](O)[C@H]1O", "note": "[ADPG, ADPglucose]", "hydrolysis / recognition as substrate by AGPPase": "catalyzes the hydrolysis"}
{"smiles": "O=[N+]([O-])c1ccc(OP(=O)(O)Oc2ccc([N+](=O)[O-])cc2)cc1", "note": "[bis-paranitrophenyl-phosphate]", "hydrolysis / recognition as substrate by AGPPase": "does not hydrolyze"}
{"smiles": "O=C[C@H](O)[C@@H](O)[C@H](O)[C@H](O)COP(=O)(O)O", "note": "[G6P, glucose-6-phosphate]", "hydrolysis / recognition as substrate by AGPPase": "does not hydrolyze"}
{"smiles": "Nc1ncnc2c1ncn2[C@@H]1O[C@H](COP(=O)(O)O)[C@@H](O)[C@H]1O", "note": "[AMP]", "hydrolysis / recognition as substrate by AGPPase": "does not hydrolyze"}
{"smiles": "O=C(O)[C@H](O)COP(=O)(O)O", "note": "[3-phosphoglycerate]", "hydrolysis / recognition as substrate by AGPPase": "does not hydrolyze"}
{"smiles": "O=C(O)[C@H]1O[C@H](OP(=O)(O)OP(=O)(O)OC[C@H]2O[C@@H](n3ccc(=O)[nH]c3=O)[C@H](O)[C@@H]2O)[C@H](O)[C@@H](O)[C@@H]1O", "note": "[UDPglucuronic]", "hydrolysis / recognition as substrate by AGPPase": "does not recognize"}
{"smiles": "O=P(O)(O)O[C@H]1O[C@H](CO)[C@@H](O)[C@H](O)[C@H]1O", "note": "[G1P, glucose-1-phosphate]", "hydrolysis / recognition as substrate by AGPPase": "does not hydrolyze"}
{"smiles": "Nc1ncnc2c1ncn2[C@@H]1O[C@H](COP(=O)(O)OP(=O)(O)OC[C@H]2OC(O)[C@H](O)[C@@H]2O)[C@@H](O)[C@H]1O", "note": "(stereo partly drawn) [ADPribose]", "hydrolysis / recognition as substrate by AGPPase": "recognizes; also recorded: hydrolyzes"}
{"smiles": "Nc1ncnc2c1ncn2[C@@H]1O[C@H](COP(=O)(O)OP(=O)(O)O[C@H]2O[C@H](CO)[C@@H](O)[C@H](O)[C@@H]2O)[C@@H](O)[C@H]1O", "note": "[ADPmannose]", "hydrolysis / recognition as substrate by AGPPase": "recognizes; also recorded: hydrolyzes"}
{"smiles": "Nc1nc2c(ncn2[C@@H]2O[C@H](COP(=O)(O)OP(=O)(O)O[C@H]3O[C@H](CO)[C@@H](O)[C@H](O)[C@@H]3O)[C@@H](O)[C@H]2O)c(=O)[nH]1", "note": "[GDPmannose]", "hydrolysis / recognition as substrate by AGPPase": "does not recognize"}
